{
  "source": "patent US20240166660A1",
  "about": "“KRAS G12C INHIBITORS” (BeiGene Switzerland GmbH, priority 2021, published 2024)",
  "note": "pIC50: −log10 of the molar value.",
  "data": [
    {"biological_target": "KRAS (aa 1-169) G12C, C51S, C80L, C118S (Homo sapiens (Human), UniProt P01116, C118S/C51S/C80L/G12C)", "sequence (P01116 other isoform, or with tags, fused parts or gaps G12C/C51S/C80L/C118S)": "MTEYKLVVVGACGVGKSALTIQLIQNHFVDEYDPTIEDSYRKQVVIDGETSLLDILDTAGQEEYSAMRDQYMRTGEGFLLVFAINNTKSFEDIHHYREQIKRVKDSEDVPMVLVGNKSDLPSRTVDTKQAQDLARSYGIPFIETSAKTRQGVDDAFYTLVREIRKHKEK", "assay": "Biochemical functional assay: SOS1-mediated nucleotide exchange of GDP-loaded KRAS G12C, binding to GST-cRaf RBD, FRET readout", "details": "3 hrs pre-incubation with compound at 24° C., SOS1, GTPyS, inhibition of nucleotide exchange", "in_short": "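GDP-loaded His-tagged KRAS construct preincubated with compound 3 h at 24° C in 25 mM HEPES pH7.5, 10 mM MgCl2, 0.01% Triton X-100; SOS1 (aa 564-1049), GTPγS and GST-cRaf RBD added for 3 h, then anti-His Tb cryptate/anti-GST XL665 for 3 h. HTRF 665/620 ratio; IC50 by four-parameter logistic fit.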", "values": [
      {"compound": "C=C(F)C(=O)N1CCN(c2nc(OC3CCCN(C)C3)nc3cc(-c4cccc5cccc(Cl)c45)c4c(c23)OCCC4)C[C@@H]1CC#N", "note": "(stereo partly drawn) [Compound B84, 2-((2S)-4-(5-(8-chloronaphthalen-1-yl)-8-((1-methylpiperidin-3-yl)oxy)-3,4-dihydro-2H-pyrano[2,3-f]quinazolin-10-yl)-1-(2-fluoroacryloyl)piperazin-2-yl)acetonitrile]", "pIC50": 6.32},
      {"compound": "C=C(F)C(=O)N1CCN(c2nc(OC(C)CN(C)C)nc3cc(-c4cccc5cccc(Cl)c45)c4c(c23)OCCC4)C[C@@H]1CC#N", "note": "(stereo partly drawn) [Compound B85, 2-((2S)-4-(5-(8-chloronaphthalen-1-yl)-8-((1-(dimethylamino)propan-2-yl)oxy)-3,4-dihydro-2H-pyrano[2,3-f]quinazolin-10-yl)-1-(2-fluoroacryloyl)piperazin-2-yl)acetonitrile]", "pIC50": 7.05},
      {"compound": "C=C(F)C(=O)N1CCN(c2nc(N3CC(COC)(N(C)C)C3)nc3cc(-c4cccc5cccc(Cl)c45)c4c(c23)OCCC4)C[C@@H]1CC#N", "note": "[Compound B86, (S)-2-(4-(5-(8-chloronaphthalen-1-yl)-8-(3-(dimethylamino)-3-(methoxymethyl)azetidin-1-yl)-3,4-dihydro-2H-pyrano[2,3-f]quinazolin-10-yl)-1-(2-fluoroacryloyl)piperazin-2-yl)acetonitrile]", "pIC50": 7.72},
      {"compound": "C=C(F)C(=O)N1CCN(c2nc(OC[C@@H]3CCCN3C)nc3cc(-c4cccc(C(F)(F)F)c4)c4ccoc4c23)C[C@@H]1CC#N", "note": "[Compound B87, 2-((S)-1-(2-fluoroacryloyl)-4-(7-(((S)-1-methylpyrrolidin-2-yl)methoxy)-4-(3-(trifluoromethyl)phenyl)furo[2,3-f]quinazolin-9-yl)piperazin-2-yl)acetonitrile]", "pIC50": 5.82},
      {"compound": "C=C(F)C(=O)N1CCN(c2nc(N3CC(CF)(N(C)C)C3)nc3cc(-c4cccc5cccc(Cl)c45)c4c(c23)OCCC4)C[C@@H]1CC#N", "note": "[Compound B88, (S)-2-(4-(5-(8-chloronaphthalen-1-yl)-8-(3-(dimethylamino)-3-(fluoromethyl)azetidin-1-yl)-3,4-dihydro-2H-pyrano[2,3-f]quinazolin-10-yl)-1-(2-fluoroacryloyl)piperazin-2-yl)acetonitrile]", "pIC50": 7.04},
      {"compound": "C=C(F)C(=O)N1CCN(c2nc(OC[C@@H]3CCCN3C)nc3cc(-c4ccc(C(F)(F)F)cc4)c4ccoc4c23)C[C@@H]1CC#N", "note": "[Compound B89, 2-((S)-1-(2-fluoroacryloyl)-4-(7-(((S)-1-methylpyrrolidin-2-yl)methoxy)-4-(4-(trifluoromethyl)phenyl)furo[2,3-f]quinazolin-9-yl)piperazin-2-yl)acetonitrile]", "pIC50": 6.16},
      {"compound": "C=C(F)C(=O)N1CCN(c2nc(N3CC(CC#N)(N(C)C)C3)nc3cc(-c4cccc5cccc(Cl)c45)c4c(c23)OCCC4)C[C@@H]1CC#N", "note": "[Compound B90, (S)-2-(1-(5-(8-chloronaphthalen-1-yl)-10-(3-(cyanomethyl)-4-(2-fluoroacryloyl)piperazin-1-yl)-3,4-dihydro-2H-pyrano[2,3-f]quinazolin-8-yl)-3-(dimethylamino)azetidin-3-yl)acetonitrile]", "pIC50": 7.43},
      {"compound": "C=C(F)C(=O)N1CCN(c2nc(OC[C@@H]3CCCN3C)nc3cc(-c4ccc(Cl)c5ccccc45)c4c(c23)OCCC4)C[C@@H]1CC#N", "note": "[Compound B98, 2-((S)-4-(5-(4-chloronaphthalen-1-yl)-8-(((S)-1-methylpyrrolidin-2-yl)methoxy)-3,4-dihydro-2H-pyrano[2,3-f]quinazolin-10-yl)-1-(2-fluoroacryloyl)piperazin-2-yl)acetonitrile]", "pIC50": 6.34},
      {"compound": "C=C(F)C(=O)N1CCN(c2nc(OC[C@@H]3CCCN3C)nc3cc(-c4ccc(F)c5ccccc45)c4c(c23)OCCC4)C[C@@H]1CC#N", "note": "[Compound B99, 2-((S)-1-(2-fluoroacryloyl)-4-(5-(4-fluoronaphthalen-1-yl)-8-(((S)-1-methylpyrrolidin-2-yl)methoxy)-3,4-dihydro-2H-pyrano[2,3-f]quinazolin-10-yl)piperazin-2-yl)acetonitrile]", "pIC50": 6.82},
      {"compound": "C=C(F)C(=O)N1CCN(c2nc(N3CC(N(C)C)C3)nc3cc(-c4cccc5cccc(Cl)c45)c4c(c23)OCCC4)C[C@@H]1CC#N", "note": "[Compound B100, (S)-2-(4-(5-(8-chloronaphthalen-1-yl)-8-(3-(dimethylamino)azetidin-1-yl)-3,4-dihydro-2H-pyrano[2,3-f]quinazolin-10-yl)-1-(2-fluoroacryloyl)piperazin-2-yl)acetonitrile]", "pIC50": 7.74},
      {"compound": "C=C(F)C(=O)N1CCN(c2nc(OC[C@@H]3CCCN3C)nc3cc(-c4cccc(Cl)c4C(F)(F)F)c4c(c23)OCCC4)C[C@@H]1CC#N", "note": "[Compound B103, 2-((S)-4-(5-(3-chloro-2-(trifluoromethyl)phenyl)-8-(((S)-1-methylpyrrolidin-2-yl)methoxy)-3,4-dihydro-2H-pyrano[2,3-f]quinazolin-10-yl)-1-(2-fluoroacryloyl)piperazin-2-yl)acetonitrile]", "pIC50": 8.16}
    ]}
  ]
}
